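Each compound was tested at five concentrations against cells in 96-well plates for 48 hours. GI50 marks 50% less growth. TGI denotes the concentration required for complete inhibition of growth.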
What was measured:
Test in all cases: NCI anticancer screen, dose series, 48 h
U251 CNS = test system: U251 CNS
MOLT-4 leukemia = test system: MOLT-4 leukemia
OVCAR-5 ovarian = test system: OVCAR-5 ovarian
UO-31 renal = test system: UO-31 renal
HCT-116 colon = test system: HCT-116 colon
HT29 colon = test system: HT29 colon
K-562 leukemia = test system: K-562 leukemia
MDA-MB-231 breast = test system: MDA-MB-231 breast
NCI-H226 lung = test system: NCI-H226 lung
TK-10 renal = test system: TK-10 renal
SW-620 colon = test system: SW-620 colon
PC-3 prostate = test system: PC-3 prostate
OVCAR-4 ovarian = test system: OVCAR-4 ovarian
MCF7 breast = test system: MCF7 breast
KM12 colon = test system: KM12 colon
SK-MEL-2 melanoma = test system: SK-MEL-2 melanoma
SK-OV-3 ovarian = test system: SK-OV-3 ovarian
M14 melanoma = test system: M14 melanoma
OVCAR-8 ovarian = test system: OVCAR-8 ovarian
RPMI-8226 leukemia = test system: RPMI-8226 leukemia
NCI/ADR-RES ovarian = test system: NCI/ADR-RES ovarian
SNB-19 CNS = test system: SNB-19 CNS
CAKI-1 renal = test system: CAKI-1 renal
786-0 renal = test system: 786-0 renal
ACHN renal = test system: ACHN renal
SK-MEL-28 melanoma = test system: SK-MEL-28 melanoma
LOX IMVI melanoma = test system: LOX IMVI melanoma
A549 NSCLC = test system: A549 NSCLC
UACC-62 melanoma = test system: UACC-62 melanoma
SF-268 CNS = test system: SF-268 CNS
SNB-75 CNS = test system: SNB-75 CNS
HOP-62 NSCLC = test system: HOP-62 NSCLC
MALME-3M melanoma = test system: MALME-3M melanoma
SK-MEL-5 melanoma = test system: SK-MEL-5 melanoma
HS 578T breast = test system: HS 578T breast
COLO 205 colon = test system: COLO 205 colon
MDA-MB-435 = test system: MDA-MB-435
HCC-2998 colon = test system: HCC-2998 colon
RXF 393 renal = test system: RXF 393 renal
DU-145 prostate = test system: DU-145 prostate
OVCAR-3 ovarian = test system: OVCAR-3 ovarian
EKVX NSCLC = test system: EKVX NSCLC
NCI-H23 lung = test system: NCI-H23 lung
SN12C renal = test system: SN12C renal
CCRF-CEM leukemia = test system: CCRF-CEM leukemia
HL-60(TB) leukemia = test system: HL-60(TB) leukemia
A498 renal = test system: A498 renal
SF-295 CNS = test system: SF-295 CNS
UACC-257 melanoma = test system: UACC-257 melanoma
SF-539 CNS = test system: SF-539 CNS
NCI-H460 lung = test system: NCI-H460 lung
HCT-15 colon = test system: HCT-15 colon
T-47D breast = test system: T-47D breast
NCI-H522 lung = test system: NCI-H522 lung

## c1ccc(C2=NOC3(c4ccccc4)CC(c4cccs4)Sc4ccccc4N23)cc1 (stereo not given)
U251 CNS
  GI50: 7.58 µM
MOLT-4 leukemia
  GI50: 8.75 µM
OVCAR-5 ovarian
  GI50: 35.1 µM
UO-31 renal
  GI50: 89.1 µM
HCT-116 colon
  GI50: 28.2 µM
HT29 colon
  GI50: 65.5 µM
K-562 leukemia
  GI50: 23.6 µM

## C=C(CNC(=O)Nc1ccc(-c2ccccc2)cc1)c1ccc(C(=O)Nc2ccccc2N)cc1
MDA-MB-231 breast
  GI50: 31.1 µM
  TGI: > 100 µM
U251 CNS
  GI50: 47.9 µM
  TGI: > 100 µM
NCI-H226 lung
  GI50: > 100 µM
  TGI: > 100 µM
TK-10 renal
  GI50: > 100 µM
  TGI: > 100 µM
SW-620 colon
  GI50: > 100 µM
  TGI: > 100 µM
MOLT-4 leukemia
  GI50: 30.5 µM
  TGI: > 100 µM
PC-3 prostate
  GI50: 51.5 µM
  TGI: > 100 µM
OVCAR-4 ovarian
  GI50: > 100 µM
  TGI: > 100 µM
MCF7 breast
  GI50: > 100 µM
  TGI: > 100 µM
OVCAR-5 ovarian
  GI50: > 100 µM
  TGI: > 100 µM
KM12 colon
  GI50: 10.8 µM
  TGI: > 100 µM
SK-MEL-2 melanoma
  GI50: > 100 µM
  TGI: > 100 µM
SK-OV-3 ovarian
  GI50: 25.9 µM
  TGI: 74.8 µM
M14 melanoma
  GI50: 90.9 µM
  TGI: > 100 µM
OVCAR-8 ovarian
  GI50: 58.9 µM
  TGI: > 100 µM
RPMI-8226 leukemia
  GI50: 20.4 µM
  TGI: > 100 µM
UO-31 renal
  GI50: > 100 µM
  TGI: > 100 µM
NCI/ADR-RES ovarian
  GI50: 58.3 µM
  TGI: > 100 µM
SNB-19 CNS
  GI50: 98.7 µM
  TGI: > 100 µM
CAKI-1 renal
  GI50: > 100 µM
  TGI: > 100 µM
HCT-116 colon
  GI50: > 100 µM
  TGI: > 100 µM
786-0 renal
  GI50: > 100 µM
  TGI: > 100 µM
ACHN renal
  GI50: > 100 µM
  TGI: > 100 µM
SK-MEL-28 melanoma
  GI50: 48.3 µM
  TGI: > 100 µM
LOX IMVI melanoma
  GI50: > 100 µM
  TGI: > 100 µM
A549 NSCLC
  GI50: > 100 µM
  TGI: > 100 µM
UACC-62 melanoma
  GI50: > 100 µM
  TGI: > 100 µM
SF-268 CNS
  GI50: > 100 µM
  TGI: > 100 µM
HT29 colon
  GI50: > 100 µM
  TGI: > 100 µM
SNB-75 CNS
  GI50: 30.6 µM
  TGI: 96.2 µM
HOP-62 NSCLC
  GI50: 49.1 µM
  TGI: > 100 µM
MALME-3M melanoma
  GI50: 53.7 µM
  TGI: > 100 µM
SK-MEL-5 melanoma
  GI50: 94.3 µM
  TGI: > 100 µM
HS 578T breast
  GI50: 81.7 µM
  TGI: > 100 µM
K-562 leukemia
  GI50: 40.6 µM
  TGI: > 100 µM
COLO 205 colon
  GI50: > 100 µM
  TGI: > 100 µM
MDA-MB-435
  GI50: 89.8 µM
  TGI: > 100 µM
HCC-2998 colon
  GI50: > 100 µM
  TGI: > 100 µM
RXF 393 renal
  GI50: 23.7 µM
  TGI: 59 µM
DU-145 prostate
  GI50: 27.7 µM
  TGI: > 100 µM
OVCAR-3 ovarian
  GI50: > 100 µM
  TGI: > 100 µM
EKVX NSCLC
  GI50: > 100 µM
  TGI: > 100 µM
NCI-H23 lung
  GI50: 85.3 µM
  TGI: > 100 µM
SN12C renal
  GI50: > 100 µM
  TGI: > 100 µM
CCRF-CEM leukemia
  GI50: 7.32 µM
  TGI: > 100 µM
HL-60(TB) leukemia
  GI50: 89.7 µM
  TGI: > 100 µM
A498 renal
  GI50: 37.4 µM
  TGI: > 100 µM
SF-295 CNS
  GI50: > 100 µM
  TGI: > 100 µM
UACC-257 melanoma
  GI50: > 100 µM
  TGI: > 100 µM
SF-539 CNS
  GI50: > 100 µM
  TGI: > 100 µM
NCI-H460 lung
  GI50: > 100 µM
  TGI: > 100 µM
HCT-15 colon
  GI50: 70.4 µM
  TGI: > 100 µM
T-47D breast
  GI50: > 100 µM
  TGI: > 100 µM
NCI-H522 lung
  GI50: 15 µM
  TGI: 99 µM
